Assay results taken from article PMC6783499, “Heteroglycoclusters With Dual Nanomolar Affinities for the Lectins LecA and LecB From Pseudomonas aeruginosa” (Frontiers in Chemistry, 2019).

Columns and labels:
LecB = target: T1, LecB (Pseudomonas aeruginosa, UniProt Q9HYN5); assay: biochemical; format: binding
T1 construct: made in house; host or cells: Escherichia coli BL21(DE3)
Protocol: (§1) The resulting hGCs were tested in solution with lectins by Isothermal Titration Calorimetry (Table 1) and their binding properties were compared with homoclusters 15–20 (Berthet et al., [2013]; Thomas et al., [2015b]) displaying either 4 and 16 βGal or αFuc units attached with an oxime or a triazole linker (Figure 3). […] Experiments were performed in direct injection mode (i.e., ligand in syringe and protein in cell) to minimize aggregation problems.
(§2) All chemical reagents were purchased from Aldrich (Saint Quentin Fallavier, France) or Acros (Noisy-Le-Grand, France). All protected amino acids and Fmoc-Gly-Sasrin® resin was obtained from Advanced ChemTech Europe (Brussels, Belgium). For peptides and glycopeptides, analytical RP-HPLC was performed on Waters system equipped with a Waters 2695 separations module and a Waters 2487 Dual Absorbance UV/Visible Detector. Analysis was carried out at 1.0 mL/min (EC 125/3 nucleosil 300-5 C18) with UV monitoring at 214 nm and 250 nm using a linear A–B gradient (buffer A: 0.09% CF3CO2H in water; buffer B: 0.09% CF3CO2H in 90% acetonitrile). Purifications were carried out at 22.0 mL/min (VP 250/21 nucleosil 100-7 C18) with UV monitoring at 214 nm and 250 nm using a linear A–B gradient. HRMS and ESI-MS and HRMS spectra of peptides and glycopeptides were measured on an Esquire 3000 spectrometer from Bruker. Lectins LecA and LecB were produced in recombinant form in Escherichia coli BL21(DE3) as described previously (Mitchell et al., [2005]; Blanchard et al., [2008]).
(§3) Other compounds were assayed with a VP-ITC isothermal titration calorimeter (Microcal). The experiments were carried out at 25°C. All glycocompounds and lectins LecB and LecA were dissolved in the same buffer composed of 20 mM Tris with 100 mM NaCl and 0.1 mM CaCl2 at pH 7.5. For PEAQ-ITC, the lectins were placed in the microcalorimeter cell (200 μL) at concentrations varying from 35 to 70 μM. […] For VP-ITC, the microcalorimeter cell (1.447 mL) contained the lectins with concentrations between 30 and 100 μM. A total of 30 injections of 10 μL were performed intervals of 5 min while stirring at 310 rpm with glycoclusters concentrations varying from 0.40 to 0.150 μM. The experimental data were fitted to a theoretical titration curve using the Microcal PEAQ-ITC analysis software, with ΔH (enthalpy change), Ka (association constant), and N (number of binding sites per monomer) as adjustable parameters. Dissociation constant (Kd), free energy change (ΔG), and entropy contributions (TΔS) were derived from the previous ones. Two or three independent titrations were performed for each ligand tested.

LecA = target: T2, LecA (Pseudomonas aeruginosa, UniProt Q05097); assay: biochemical; format: binding
T2 construct: made in house; host or cells: Escherichia coli BL21(DE3)
T2 sequence (Q05097 whole entry): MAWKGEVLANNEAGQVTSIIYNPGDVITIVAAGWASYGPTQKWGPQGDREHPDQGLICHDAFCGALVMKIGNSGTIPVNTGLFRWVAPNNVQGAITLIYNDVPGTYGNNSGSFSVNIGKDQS
Protocol: as §1, §2
as §3, with “A total of 30 injections of 10 μL were performed intervals of 5 min while stirring at 310 rpm with glycoclusters concentrations varying from 0.40 to 0.150 μM.” left out

[1] = ITC, 25°C, per mole of glycocluster
[2] = LecA, ITC, 25°C, per mole of glycocluster

T1 sequence (Q9HYN5 entry or part of it): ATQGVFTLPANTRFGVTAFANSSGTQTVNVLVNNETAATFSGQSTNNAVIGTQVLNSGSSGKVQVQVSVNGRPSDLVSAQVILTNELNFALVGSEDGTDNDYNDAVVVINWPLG

C[C@@H]1NC(=O)[C@H](CCCCNC(=O)/C=N/O[C@@H]2O[C@H](CO)[C@H](O)[C@H](O)[C@H]2O)NC(=O)CNC(=O)[C@@H]2CCCN2C(=O)[C@H](CCCCNC(=O)/C=N/O[C@@H]2O[C@H](CO)[C@H](O)[C@H](O)[C@H]2O)NC(=O)[C@H](CCCCNC(=O)CO/N=C/C(=O)NCCCC[C@@H]2NC(=O)CNC(=O)[C@@H]3CCCN3C(=O)[C@H](CCCCNC(=O)/C=N/OCC(=O)NCCCC[C@@H]3NC(=O)[C@H](CCCCNC(=O)/C=N/O[C@@H]4O[C@H](CO)[C@H](O)[C@H](O)[C@H]4O)NC(=O)CNC(=O)[C@@H]4CCCN4C(=O)[C@H](CCCCNC(=O)/C=N/O[C@@H]4O[C@H](CO)[C@H](O)[C@H](O)[C@H]4O)NC(=O)[C@H](C)NC(=O)[C@H](CCCCNC(=O)/C=N/O[C@@H]4O[C@H](CO)[C@H](O)[C@H](O)[C@H]4O)NC(=O)CNC(=O)[C@@H]4CCCN4C(=O)[C@H](CCCCNC(=O)/C=N/O[C@@H]4O[C@H](CO)[C@H](O)[C@H](O)[C@H]4O)NC3=O)NC(=O)[C@H](CCCCN)NC(=O)[C@H](CCCCNC(=O)CO/N=C/C(=O)NCCCC[C@@H]3NC(=O)[C@H](CCCCn4cc(CO[C@@H]5O[C@@H](C)[C@@H](O)[C@@H](O)[C@@H]5O)nn4)NC(=O)CNC(=O)[C@@H]4CCCN4C(=O)[C@H](CCCCn4cc(CO[C@@H]5O[C@@H](C)[C@@H](O)[C@@H](O)[C@@H]5O)nn4)NC(=O)[C@H](C)NC(=O)[C@H](CCCCn4cc(CO[C@@H]5O[C@@H](C)[C@@H](O)[C@@H](O)[C@@H]5O)nn4)NC(=O)CNC(=O)[C@@H]4CCCN4C(=O)[C@H](CCCCn4cc(CO[C@@H]5O[C@@H](C)[C@@H](O)[C@@H](O)[C@@H]5O)nn4)NC3=O)NC(=O)CNC(=O)[C@@H]3CCCN3C(=O)[C@H](CCCCNC(=O)CO/N=C/C(=O)NCCCC[C@@H]3NC(=O)[C@H](CCCCn4cc(CO[C@@H]5O[C@@H](C)[C@@H](O)[C@@H](O)[C@@H]5O)nn4)NC(=O)CNC(=O)[C@@H]4CCCN4C(=O)[C@H](CCCCn4cc(CO[C@@H]5O[C@@H](C)[C@@H](O)[C@@H](O)[C@@H]5O)nn4)NC(=O)[C@H](C)NC(=O)[C@H](CCCCn4cc(CO[C@@H]5O[C@@H](C)[C@@H](O)[C@@H](O)[C@@H]5O)nn4)NC(=O)CNC(=O)[C@@H]4CCCN4C(=O)[C@H](CCCCn4cc(CO[C@@H]5O[C@@H](C)[C@@H](O)[C@@H](O)[C@@H]5O)nn4)NC3=O)NC(=O)[C@H](C)NC2=O)NC(=O)[C@H](CCCCNC(=O)/C=N/O[C@@H]2O[C@H](CO)[C@H](O)[C@H](O)[C@H]2O)NC(=O)CNC(=O)[C@@H]2CCCN2C(=O)[C@H](CCCCNC(=O)/C=N/O[C@@H]2O[C@H](CO)[C@H](O)[C@H](O)[C@H]2O)NC1=O [Compound 13]
n (stoichiometry, glycocluster molecules per lectin monomer) (LecB; ITC, 25°C, pH 7.5): 0.10
–ΔG (LecB; [1]): 9.44 kcal/mol
–ΔH (LecB; [1]): 43.71 ± 1.9 kcal/mol
−TΔS (LecB; [1]): 34.25 kcal/mol
Kd (LecB; Kd, ITC, 25°C, 20 mM Tris, 100 mM NaCl, 0.1 mM CaCl2, pH 7.5, ligand in syringe): 118 ± 15 nM
binding to LecB in words (LecB; abstract): maintain their binding potency
α (relative potency compared to the monovalent compound) (LecB; relative to αFuc-OMe): 3.6
β (relative potency per sugar unit) (LecB; relative to αFuc-OMe): 0.5
Kd (LecA): 35 ± 0.1 nM
–ΔH (binding enthalpy) (LecA; LecA, ITC): 51.6 to 58.1 kcal/mol
n (stoichiometry, glycocluster molecules per lectin monomer) (LecA; LecA, ITC, 25°C, pH 7.5): 0.16
–ΔG (LecA; [2]): 10.2 kcal/mol
–ΔH (LecA; [2]): 51.6 ± 0.72 kcal/mol
−TΔS (LecA; [2]): 41.49 kcal/mol
binding to LecA in words (LecA; LecA, abstract): maintain their binding potency
α (relative potency compared to the monovalent compound) (LecA; LecA, relative to βGal-OMe): 4,286
β (relative potency per sugar unit) (LecA; LecA, relative to βGal-OMe): 536
